Results: patent US20050004044A1, “Use of orsaponin [3beta, 16beta, 17 alpha-trihydroxycholost-5-en-22-one 16-0-(2-0-4-methoxybenzoyl-beta-D-xylopyranosyl)-(1->3)-(2-0-acetyl-alpha-L-arabinopyranoside)] or OSW-1 and its derivatives for cancer therapeutics” (priority 2003, published 2005)

What was measured:
Format in all cases: cell-based, human
[1] = test system: C6F cells (HL-60 mutant with mitochondrial respiration defect); assay: Apoptosis and cell cycle, respiration-deficient C6F; conditions: 0.5 nM, 16 and 24 h
Procedure: FIG. 9. Mitochondrial respiration plays an important role in the cytotoxic action of Orsaponin (OSW-1). The parental HL-60 line and its mutant with mitochondrial respiration defect, clone C6F, were incubated with 0.5 nM OSW-1 for the indicated times. Apoptosis and change in cell cycle distribution were assayed by flow cytometry analysis.
Two cancer cell lines and their mutant mitochondrial respiration deficient clones were analyzed for apoptosis and changes in cell-cycle following exposure to OSW-1. Thus, the parental HL-60 leukemia line and its mitochondrial respiration defective mutant C6F were incubated with 0.5 nM OSW-1 for 0, 8, 16 and 24 hours and apoptosis and change in cell cycle distribution were assayed by flow cytometry analysis. […] Thus, it is clear that the respiration defective cells are resistant to the effects of OSW-1. Consistent with these observations, apoptosis was also detected by DNA fragmentation assays performed at 24 and 32 hours after HL-60 cells are treated with OSW-1; DNA fragmentation was not observed in C6F cells even at 32 hours of drug incubation (data not shown).

HL-60 cells = assay: Mitochondrial transmembrane potential (rhodamine-123), HL-60; conditions: HL-60, 0.5 nM
Procedure: FIG. 10. Effect of Orsaponin (OSW-1) on Mitochondrial transmembrane potential HL-60 cells. The parental HL-60 line and its mutant with mitochondrial respiration defect, clone C6F, were incubated with 0.5 nM OSW-1 for the indicated times. Change in mitochondrial transmembrane potential was measured by cytometry analysis, using rhodamine-123 as a potential-sensitive fluorescent dye.
(§1) 3. Analysis of the Mitochondrial Transmembrane Potential. To evaluate the role of mitochondrial respiration in the cytotoxicity of OSW-1, changes in the potential of mitochondrial membrane were analyzed. Following the treatment of cells with OSW-1 for different time periods, cells were incubated with rhodamine-123 which is a potential-sensitive dye. Cytometric analysis was used to record changes in mitochondrial potential. […]
The effect of OSW-1 on mitochondrial transmembrane potential in HL-60 cells and C6F cells was also analyzed by incubating the cells with 0.5 nM OSW-1 for the 4, 16 and 24 hours. Change in mitochondrial transmembrane potential was measured by flow cytometry analysis, using rhodamine-123 as a potential-sensitive fluorescent dye and are depicted in FIG. 10.

ML-1 cells = assay: Mitochondrial transmembrane potential (rhodamine-123), ML-1; conditions: ML-1, 1 nM, 16 and 24 h
Procedure: FIG. 11. Effect of orsaponin (OSW-1) on mitochondrial transmembrane potential ML-1 cells. The parental ML-1 line and its mutant with mitochondrial respiration defect, clone C19, were incubated with 1 nM OSW-1 for the indicated times. Change in mitochondrial transmembrane potential was measured by cytometry analysis, using rhodamine-123 as a potential-sensitive fluorescent probe.
as §1
The effect of OSW-1 on mitochondrial transmembrane potential of ML-1 cells and the corresponding mitochondrial respiration defective mutant cell line C19 were analyzed by incubating with 1 nM OSW-1 for 4, 16 and 24 hours. Change in mitochondrial transmembrane potential was measured by cytometry analysis, using rhodamine-123 as a potential-sensitive fluorescent probe and are depicted in FIG. 11.

ML-1 leukemia cells = assay: MTT cell growth inhibition, ML-1; conditions: Homo sapiens, 72 h, ML-1, 72 h
Procedure: 1. MTT Assays. For these assays either cancer cell lines were used. Alternatively, mononuclear cells from peripheral blood samples of CLL patients or normal donors were separated by Ficoll Hipaque fractionation and resuspended in DMEM complete medium. Malignant cells from various human cell lines (usually at 5×10^4 cells/ml) or mononuclear cells from peripheral blood of leukemia patients and healthy donors (1×10^6 cells/ml) were incubated in either αMEM or RPMI 1640 with or without various concentrations of OSW-1 in the range of 0-10 nM. Each experimental condition was done in triplicate. After the indicated number of days (usually 3 days or 72 hours) of exposure to OSW-1, cell survival was assessed by the addition of the MTT dye to the wells. The MTT dye changes its color depending on the presence of live cells in the well. Survival of cells under orsaponin treatment was evaluated as a percentage of control cell growth. Alternatively, one can also use the dye trypan-blue which penetrates dead cells thereby allowing one to count live cells under the microscope and estimating percentage survival.
Anticancer activities of Orsaponin and 17-deoxyorsaponin were examined in human leukemia cells (ML-1) and human lymphoma cells (Raji). Cells were incubated with various concentrations of Orsaponin and 17-deoxyorsaponin for 72 h, and cell growth inhibition was measured by MTT assay.
The effect of 17-deoxyorsaponin in human ovarian cancer cells was determined. SKOV3 ovarian cancer cells were incubated with various concentrations of 17-deoxyorsaponin for 72 h. Cell growth inhibition was measured by MTT assay (FIG. 17). […] The effect of 17-deoxyorsaponin in human acute myeloid leukemia cells was also examined. ML-1 leukemia cells were incubated with various concentrations of 17-deoxyorsaponin for 72 h and cell growth inhibition was measured using the MTT assay (FIG. 18).

COc1ccc(C(=O)OC2C(OC3C(O)COC(O[C@H]4C[C@H]5[C@@H]6CC=C7C[C@@H](O)CC[C@]7(C)[C@H]6CC[C@]5(C)[C@@]4(O)[C@H](C)C(=O)CCC(C)C)C3OC(C)=O)OCC(O)C2O)cc1 (stereo partly drawn) [OSW-1, 3β, 16β, 17 α-trihydroxycholost-5-en-22-one 16-O-(2-O-4-methoxybenzoyl-β-D-xylopyranosyl)-(1->3)-(2-O-acetyl-α-L-arabinopyranoside)]
apoptosis [1]: does not result in significant apoptosis
change in mitochondrial transmembrane potential (HL-60 cells; 16-24 h): substantial loss of mitochondrial transmembrane potential
change in mitochondrial transmembrane potential (HL-60 cells; 4 h): did not cause a significant change in mitochondrial transmembrane potential
change in mitochondrial transmembrane potential (ML-1 cells): substantial loss of mitochondrial transmembrane potential
IC50 (ML-1 leukemia cells): < 0.1 nM
